System: variant F49 of the protease from Bacillus lentus
Test: Residual proteolytic activity after storage in liquid washing agent (suc-AAPF-pNA release)
Type: biochemical
Conditions: 13 days at 30° C., based on initial activity of 100%
Excerpt: A liquid washing agent of the following composition served as a baseline washing agent formulation (all indications in percent by weight): 0.3 to 0.5% xanthan, 0.2 to 0.4% antifoaming agent, 6 to 7% glycerol, 0.3 to 0.5% ethanol, 4 to 7% FAEOS (fatty alcohol ether sulfate), 24 to 28% nonionic surfactants, 1 to 2% sodium citrate (dihydrate), 2 to 4% soda, 14 to 16% coconut fatty acids, 0.5% HEDP (1-hydroxyethane-(1,1-diphosphonic acid)), 0 to 0.4% PVP (polyvinylpyrrolidone), 0 to 0.05% optical brightener, 0 to 0.001% dye, remainder demineralized water.
The oligoaminobiphenyl oligocarboxylic acid 3,3-diamino-[1,1-biphenyl]-2,4-dicarboxylic acid was incorporated into this formulation as the component stabilizing the hydrolytic enzyme, as indicated below (see Table 1, indications in this regard in wt %). Comparison formulations that contained either boric acid as an enzyme stabilizer, or no enzyme stabilizer, served as controls. The protease used was variant F49 of the protease from Bacillus lentus in accordance with WO 95/23221 (quantity used: 1 wt % active substance).
After storage, the respective residual proteolytic activity was determined by way of the release of the para-nitroaniline (pNA) chromophore from the suc-L-Ala-L-Ala-L-Pro-L-Phe-p-nitroanilide substrate (suc-AAPF-pNA) (SEQ ID NO. 1). The protease cleaves the substrate and releases pNA. The release of pNA causes an increase in extinction at 410 nm, the time course of which is an indication of enzymatic activity (see Del Mar et al., 1979). Measurement occurred at a temperature of 25° C., at pH 8.6 and at a wavelength of 410 nm. The measurement time was 5 min, with a measurement interval from 20 s to 60 s. The proteolytic activity values obtained are indicated in Table 1 below, based on an initial activity of 100% when storage began.

[1] = 1.0 wt % (1%) stabilizer in baseline liquid washing agent

| Structure (SMILES) | residual proteolytic activity after storage [1] [%] | residual proteolytic activity after storage (0.1 wt % stabilizer in baseline liquid washing agent) [%] | residual proteolytic activity after storage (0.5 wt % stabilizer in baseline liquid washing agent) [%] | residual proteolytic activity after storage (2.0 wt % stabilizer in baseline liquid washing agent) [%] |
| --- | --- | --- | --- | --- |
| OB(O)O [boric acid, reference compound] | 74.9 | – | – | – |
| Nc1cc(-c2cccc(N)c2C(=O)O)ccc1C(=O)O | 48.0 | 30.2 | 43.5 | 73.6 |

Source: patent US8883140B2 (Henkel AG & Co. KGaA, priority 2010, dated 2014)
